Laboratory results taken from PMC7771853, “Differential effects of novel kappa opioid receptor antagonists on dopamine neurons using acute brain slice electrophysiology” (PLoS ONE, 2020).

Tests used:
VTA neurons = experiment: Wash in of antagonist: change in Iholding in VTA neurons; assay type: cell-based, rat; conditions: for change in Iholding on wash in: across the concentrations tested
KOR = test system: KOR; design: method as in PMID 21832171; conditions: cited from earlier work

CC(C)CNCc1ccc(-c2ccccc2S(=O)(=O)N2CCCC2)cc1 [PF-04455242, 2-methyl-N-((2'-(pyrrolidin-1-ylsulfonyl)biphenyl-4-yl)methyl)propan-1-amine]
neurons with outward current independent of KOR activation (VTA neurons; 1 μM antagonist): 3/8 | extracellular signal-regulated kinase (ERK) phosphorylation (KOR; HEK293 cells expressing KOR ref 21): did not generate | c-Jun N terminal kinase (JNK) phosphorylation (KOR; HEK293 cells expressing KOR, compared to other KOR antagonists ref 21): minimal

CCc1ccc2nc(N3CCC(NCC4(C)COC4)CC3)c(-c3nc(C)no3)cc2c1 [BTRX-395750]
change in Iholding on wash in (VTA neurons): means very close to zero

Cc1cc(C)cc([C@@H]2CCCN2Cc2ccc(Oc3ccc(C(N)=O)cc3F)cc2)c1 [JNJ-67953964, (S)-3-fluoro-4-(4-((2-(3,5-dimethylphenyl)pyrrolidin-1-yl)methyl)phenoxy)benzamide]
neurons with possible inward current on wash in (VTA neurons; 10 nM antagonist): 3 of 13

CCc1cc(F)c2nc(N3CCC(NC4CCOCC4)CC3)c(-c3nc(C)no3)c(C)c2c1 [BTRX-335140, 1-(6-ethyl-8-fluoro-4-methyl-3-(3-methyl-1,2,4-oxadiazol-5-yl)quinolin-2-yl)-N-(tetrahydro-2H-pyran-4-yl)piperidin-4 amine]
change in Iholding on wash in (VTA neurons): means very close to zero
